Experimental data published in publication PMC12040169 (PLOS Biology, 2025).

Assay: in vitro
Settings: human, hela cells, % viability

SMILES	viability at 28.5 h, 10 µM
Cc1ccc(-c2cc(CC3(C(=O)NC4CC4)CCOCC3)on2)cc1 [CBK284946]	99.7%
O=C1CC2(CCC3C(C(=O)N4CCCCC4)C32)Oc2ccccc21 (stereo not shown) [CBK284947]	105%
Cn1cncc1CN1CCCC(c2cc3cccnc3[nH]2)C1 (stereo not shown) [CBK284948]	98.4%
CCCn1ncc(CN2CCC(c3cc4cccnc4[nH]3)CC2)c1C [CBK284949]	97.2%
Cc1ccc2c(c1)C(=O)CC1(CCC3C(C(=O)N4CCCC4)C31)O2 (stereo not shown) [CBK284951]	98.3%
Cc1nccn1CC1(O)CCN(Cc2ccc(F)c(F)c2)CC1 [CBK284955]	117%
O=C(CCn1c(C(F)F)cc2cccnc21)N1CCOCC1 [CBK284956]	101%
CC1CCCCN1C(=O)C1C2CCC3(CC(=O)c4ccccc4O3)C21 (stereo not shown) [CBK284960]	101%
Cc1nccn1CC1(O)CCN(Cc2ccccc2F)CC1 [CBK284961]	105%
CC(C)(C)NC(=O)C1C2CCC3(CC(=O)c4cc(Cl)ccc4O3)C21 (stereo not shown) [CBK284963]	109%
Cc1ccc(-c2cc3cccnc3n2CCC(=O)NC2CC2)cn1 [CBK284964]	97.4%
CN1CCC2(CC1)CN(C(=O)C1CC1)Cc1ccccc1O2 [CBK284967]	102%
Cc1ccc(S(=O)(=O)N2CC[C@@H]3C[C@H](NC(=O)C4CC4C)[C@@H]32)cc1 (stereo partly shown) [CBK284968]	90%
O=C1CC2(CCC3C(C(=O)N4CCCC4)C32)Oc2ccccc21 (stereo not shown) [CBK284969]	104%
Cn1cc(C2CCCCCN2C(=O)c2cccc(F)c2)cn1 (stereo not shown) [CBK284970]	102%
Cn1cc(C2CCCCCN2C(=O)c2nn(C)cc2Cl)cn1 (stereo not shown) [CBK284972]	93.2%
Cc1noc(C)c1C(=O)N1CCCCCC1c1cnn(C)c1 (stereo not shown) [CBK284974]	98.8%
O=C(c1n[nH]c2c1CCCC2)N1CCc2ncc(Cl)cc2C1 [CBK284975]	93.4%
O=C1CC(C(=O)N2CCc3ncc(Cl)cc3C2)c2ccccc2N1 (stereo not shown) [CBK284976]	94.4%
CCn1nc(C)c(CN2CCCC(c3cc4cccnc4[nH]3)C2)c1C (stereo not shown) [CBK284977]	107%
Cc1cc2ccnc(Cl)c2n1CC1(O)CC2CCC(C1)N2 (stereo not shown) [CBK284980]	95%
Cc1nccn1CC1(O)CCN(CC2=CCC3CC2C3(C)C)CC1 (stereo not shown) [CBK284981]	94.6%
CC1CCN(C(=O)CCn2c(C(F)F)cc3cccnc32)CC1 [CBK284982]	85.6%

SMILES	viability at 28.5 h, 10 µM
O=C(CCn1c(C(F)F)cc2cccnc21)N1CCCCCC1 [CBK284983]	96.9%
O=C(CCn1c(C(F)F)cc2cccnc21)N1CCCC(CO)C1 (stereo not shown) [CBK284985]	99.5%
Cn1nc(C2CCN(C(=O)Cc3ccsc3)CC2)c2cccnc21 [CBK284986]	101%
Cc1ccc(C(=O)N2CCC(c3nn(C)c4ncccc34)CC2)s1 [CBK284988]	86.1%
O=C(c1c(F)cccc1F)N1CCC(c2cc3cccnc3[nH]2)CC1 [CBK284997]	91.5%
Cc1cc(C)n(CC(=O)N2CCC(c3cc4cccnc4[nH]3)CC2)n1 [CBK284999]	91.3%
O=C(c1ccc(F)cc1)N1CCC(c2cc3cccnc3[nH]2)CC1 [CBK285001]	96.8%
O=C(Cn1c(C2CCNCC2)cc2cccnc21)NC1CCCC1 [CBK285002]	104%
COCC(=O)NC(Cc1cccs1)c1nc(C)cs1 (stereo not shown) [CBK285004]	87.3%
Cc1csc(C(Cc2cccs2)NC(=O)C2CCOCC2)n1 (stereo not shown) [CBK285006]	89.2%
CC(=O)N1C[C@@H](N(C)C)[C@H](c2cn(C)c3ccccc23)C1 [CBK285007]	99.5%
CC(C)N(C(=O)Cn1c(C(F)F)cc2cccnc21)C(C)C [CBK285009]	100%
COCC(C)NC(=O)Cn1c(C(F)F)cc2cccnc21 (stereo not shown) [CBK285010]	105%
O=C(Cn1cccc2cc(C3CCCNC3)nc1-2)NC1CCCC1 (stereo not shown) [CBK285015]	95.5%
Cc1n[nH]c(C)c1CC(=O)N1CCCC(c2cc3ccccc3cn2)C1 (stereo not shown) [CBK285018]	103%
Cc1csc(C(Cc2ccsc2)NCc2cccnc2)n1 (stereo not shown) [CBK285020]	96.6%
CC(=O)N1Cc2cc(C)ccc2OC2(CCN(CC3CC3)CC2)C1 [CBK285021]	95%
CC1CCCN(C(=O)CCn2c(C(F)F)cc3cccnc32)C1 (stereo not shown) [CBK285025]	97.9%
CCN1CCN(C(=O)CCn2c(C(F)F)cc3cccnc32)CC1 [CBK285026]	112%
CC(=O)NC(c1ccccn1)C1CCCN(C(=O)C(C)C)C1 (stereo not shown) [CBK285030]	111%
O=C1NCCCC12CCN(Cc1cccc3ncccc13)CC2 [CBK285033]	101%
O=C(Cc1ccccc1F)N1CCC(c2cc3cccnc3[nH]2)CC1 [CBK285035]	104%
CC(CC(=O)N1CCC(c2cc3cccnc3[nH]2)CC1)n1cccn1 (stereo not shown) [CBK285036]	100%
